Key:
[1] = system: phrenic discharges; settings: rat, in vivo
[2] = system: Sprague Dawley rats; assay: Plethysmography of breathing after repetitive (chronic) morphine administrations, with or without cloperastine
From the text: A major adverse effect of the chronic use of opioid drugs is respiratory depression causing a […] in the United States. Via μ-Opioid receptors (MOR), respiratory neurons in the brainstem are known to be the targets, especially those in the ventral respiratory column (VRC). However, how the VRC neurons react to chronic opioid drugs remains elusive. To understand how chronic morphine exposures affect brainstem respiratory motor output, we performed these studies in Sprague Dawley rats, using repetitive morphine administrations. […] Since the MOR is coupled to GIRK channels, we applied Cloperastine, a GIRK channel blocker and a commercial OTC drug, to the rats before or after chronic morphine.
Disclosed herein are methods for treating chronic morphine exposures and how this exposure affects brainstem respiratory motor output. Disclosed herein are studies using Sprague Dawley rats, during which repetitive morphine administrations were conducted.

[3] = system: phrenic discharges; assay: Phrenic discharge recording in spontaneously breathing rats after decerebration
[4] = system: rostral ventral respiratory group (rVRG) neurons; assay: Extracellular recording of firing activity of respiratory neurons in the ventral respiratory group; type: in vivo, Sprague Dawley rats
Description: Firing activity of respiratory neurons was recorded extracellularly in the ventral respiratory group.

[5] = 50 mg/kg morphine followed by 30 mg/kg cloperastine

Clc1ccc(C(OCCN2CCCCC2)c2ccccc2)cc1 (stereo not drawn) [cloperastine]
Te and Ti duration (FIG. 24) [1]: nearly the same as the control
Te/Ti ratio (FIG. 25) [1]: nearly identical to control
breathing frequency (FIG. 26) [1]: nearly identical to control
erratic breathing (FIG. 8) ([2]; 30 mg/kg cloperastine injected after 10 mg/kg morphine): reduction in erratic breathing
erratic breathing (FIG. 11) ([2]; 30 mg/kg cloperastine injected first, then 10 mg/kg morphine): reduction in erratic breathing
effect on chronic morphine-induced central hypoventilation ([2]; cloperastine applied before or after chronic morphine): reverses hypoventilation mainly by suppression the irregularity of breathing amplitude and frequency
time at which a significant change in normalized minute ventilation occurs (FIG. 16) ([2]; cloperastine given at 20 minutes post morphine): about 45 minutes
effect on morphine's effects on breathing frequency (FIG. 13) ([2]; cloperastine injection after morphine, normalized time course): reducing the effects of morphine of breathing frequency
phrenic discharge pattern (FIG. 19) [3, 5]: erratic phrenic activity has nearly completely subsided
firing activity of rVRG neurons (FIG. 31) [4, 5]: return to near normal firing activity

CN1CC[C@]23c4c5ccc(O)c4O[C@H]2[C@@H](O)C=C[C@H]3[C@H]1C5 [morphine]
effect on breathing (minute ventilation, variation of amplitude and frequency) ([2]; 10 mg/kg morphine): causes central hypoventilation with decreased breathing minute ventilation, increased variation of both breathing amplitude & frequency
breathing depression after repetitive morphine administrations ([2]; chronic morphine, Sprague Dawley rats): severe breathing depression was found in these rats
time for the breathing effects to reach a plateau level ([2]; repetitive morphine administrations): 3 to 4 days
duration of minute ventilation suppression ([2]; same dose morphine following the chronic treatments): 3 to 4 h
suppression of minute ventilation ([2]; same dose morphine following the chronic treatments, n=16 rats, plethysmography): 55.2%±4.1
variations in tidal volume and breathing frequency ([2]; same dose morphine following the chronic treatments, plethysmography): severe variations in tidal volume and breathing frequency
ectopic phrenic activity during expiration ([3]; after chronic morphine exposures): Ectopic phrenic activity during expiration was seen
E-I phase-spanning neurons in the ventral respiratory group ([4]; chronic morphine versus saline injection): A large number of E-I phase-spanning neurons were observed

— patent US20220211695A1, “MORPHINE-INDUCED RESPIRATORY DEPRESSION: BEHAVIORAL, PHRENIC AND BRAINSTEM RESPIRATORY NEURONAL EVIDENCE” (GEORGIA STATE UNIVERSITY RESEARCH FOUNDATION, INC., priority 2019, published 2022)
